Patent publication US20260103471A1, “CYCLIC UREA THIAZOLYL COMPOUNDS FOR TREATMENT OF HSV” (Assembly Biosciences, Inc., priority 2022, published 2026)

Each compound was assayed on HSV-2 G strain (assay: HSV-2 Antiviral Assay (Vero cells, cell viability)). Conditions: Human alphaherpesvirus 2, Vero, 120 h, Vero cells, 160 TCID50 HSV-2 G strain, 5 days, cell viability.
Assay type: cell-based
Procedure: Vero cells were cultured in Dulbecco's Modified Eagle Medium (DMVEM) supplemented with […] and 100 units/mL penicillin and streptomycin. The cells were passaged 2-3 times per week to maintain sub-confluent densities.
Vero cells were seeded into 96-well plates at a density of 1.0×10^4 cells per well and allowed to attach overnight. Following attachment, the media was replaced with 50 μL of infection medium (DMEM supplemented with 2% fetal bovine serum and 100 units/mL penicillin and streptomycin). A Tecan D300e digital dispenser was then used to add compounds to the culture using an 8-point 3-fold serial dilution format. The DMSO concentration was normalized to 0.5% for all treatments. Following compound addition, 50 μL of infection medium containing 160 TCID50 HSV-2 G strain was added to the cells and incubated at 37° C. for 5 days. After the incubation, 10 μL/well of WST-8 chromogenic reagent was added and the plates incubated at 37° C. for 3 hours. Following the incubation, cell viability was quantified by measuring the absorbance at 460 nm and 620 nm using a Tecan Infinite M1000 Pro plate reader.

EC50 [nM] | Compound
< 100 | Cc1nc(N2CCCN(c3ccc(-c4cccc(-c5nccs5)c4)cc3)C2=O)sc1S(N)(=O)=O [Compound 30, 4-methyl-2-(2-oxo-3-(3′-(thiazol-2-yl)-[1,1′-biphenyl]-4-yl)tetrahydropyrimidin-1(2H)-yl)thiazole-5-sulfonamide]
100 to 1000 | Cc1nc(N2CCCN(c3ccc(-c4cc(F)cc5c4c(C#N)cn5C)cc3)C2=O)sc1S(N)(=O)=O [Compound 294]
< 100 | Cc1nc(N2CCCN(c3ccc(-c4cccc5c4C(F)(F)CO5)cc3)C2=O)sc1S(N)(=O)=O [Compound 264]
< 100 | COc1c(F)cc(F)cc1-c1ccc(N2C[C@H](C(F)(F)F)CN(c3nc(C)c(S(N)(=O)=O)s3)C2=O)cc1 (single isomer, unassigned) [Compound 374]
100 to 1000 | Cc1nc(N2CCCN(c3ccc(-c4cc(F)cc5c(C)c(C(C)(C)O)sc45)cc3)C2=O)sc1S(N)(=O)=O [Compound 282]
< 100 | CCC[S@@](=N)(=O)c1sc(N2CCCN(c3ccc(-c4cc(F)cc(F)c4F)cc3)C2=O)nc1C (single isomer, unassigned) [Compound 424]
100 to 1000 | COc1ccncc1-c1ccc(N2CCCN(c3nc(C)c(S(N)(=O)=O)s3)C2=O)cc1 [Compound 233]
100 to 1000 | COc1c(F)cc(F)cc1-c1ccc(N2CC(C(C)(C)O)CN(c3nc(C)c(S(N)(=O)=O)s3)C2=O)cc1 (stereo not shown) [Compound 345]
< 100 | Cc1nc(N2CC(O)CN(c3ccc(-c4cc(F)ccc4F)cc3)C2=O)sc1S(N)(=O)=O (stereo not shown) [Compound 353, 2-(3-(2′,5′-difluoro-[1,1′-biphenyl]-4-yl)-5-hydroxy-2-oxotetrahydropyrimidin-1(2H)-yl)-4-methylthiazole-5-sulfonamide]
< 100 | Cc1nc(N2CCCN(c3ccc(-c4cc(F)ccc4F)cc3)C2=O)sc1S(=O)(=O)Nc1ccccn1 [Compound 406]
< 100 | CCCS(=N)(=O)c1sc(N2CCCN(c3ccc(-c4cc(F)cc(F)c4F)cc3)C2=O)nc1C (stereo not shown) [Compound 423]
1000 to 5000 | Cc1nc(N2CC(C(=O)O)CN(c3ccc(-c4cc(F)ccc4F)cc3)C2=O)sc1S(N)(=O)=O (stereo not shown) [Compound 380]
< 100 | Cc1nc(N2CC3(CCCC3)CN(c3ccc(-c4cccc5ncsc45)cc3)C2=O)sc1S(N)(=O)=O [Compound 337]
< 100 | Cc1nc(N2CCCN(c3ccc(-c4cc(F)cc5c4ccn5C(F)F)cc3)C2=O)sc1S(N)(=O)=O [Compound 299]
100 to 1000 | Cc1nc(N2CCCN(c3ccc(-c4cc(F)ccc4F)cc3)C2=O)sc1S(=O)(=O)NC(C)(C)CO [Compound 402]
< 100 | COc1c(F)cc(F)cc1-c1ccc(N2CC(F)(F)CN(c3nc(C)c(S(N)(=O)=O)s3)C2=O)cc1 [Compound 375]
< 100 | Cc1nc(N2CCCN(c3ccc(-c4cccc5nc(N)sc45)cc3)C2=O)sc1S(N)(=O)=O [Compound 69]
< 100 | Cc1nc(N2CC3(COC3)CN(c3ccc(-c4cc(F)cc5nonc45)cc3)C2=O)sc1S(N)(=O)=O [Compound 341]
< 100 | Cc1nc(N2CCCN(c3ccc(-c4cc(F)ccc4F)cc3)C2=O)sc1S(=O)(=O)NCCO [Compound 388, 2-(3-(2′,5′-difluoro-[1,1′-biphenyl]-4-yl)-2-oxotetrahydropyrimidin-1(2H)-yl)-N-(2-hydroxyethyl)-4-methylthiazole-5-sulfonamide]
100 to 1000 | Cc1nc(N2CCCN(c3ccc(-c4cc(F)cc5cc(C(C)(C)O)sc45)cc3)C2=O)sc1S(N)(=O)=O [Compound 281]
< 100 | Cc1cccc(-c2ccc(N3CCCN(c4nc(C)c(S(N)(=O)=O)s4)C3=O)cc2)c1C [Compound 195]
< 100 | CNS(=O)(=O)c1sc(N2CCCN(c3ccc(-c4cccc5cc(N)ncc45)cc3)C2=O)nc1C [Compound 411]

EC50 [nM] | Compound
100 to 1000 | Cc1nc(N2CCCN(c3ccc(-c4cc(C#N)cc5ncsc45)cc3)C2=O)sc1S(N)(=O)=O [Compound 278]
< 100 | Cc1nc(N2CCCN(c3ccc(-c4cc(Cl)cc(F)c4F)cc3)C2=O)sc1S(N)(=O)=O [Compound 214]
100 to 1000 | Cc1nc(N2CCCN(c3ccc(-c4cc(C(F)(F)F)ccn4)cc3)C2=O)sc1S(N)(=O)=O [Compound 240]
< 100 | Cc1nc(N2CC(C)CN(c3ccc(-c4ccccc4Cl)cc3)C2=O)sc1S(N)(=O)=O (stereo not shown) [Compound 321]
100 to 1000 | Cc1nc(N2CCCN(c3ccc(-c4cc(F)c(F)c(F)c4)cc3)C2=O)sc1S(N)(=O)=O [Compound 188]
< 100 | Cc1nc(N2CCCN(c3ccc(-c4cccc(C5(C#N)CC5)c4)cc3)C2=O)sc1S(N)(=O)=O [Compound 198]
100 to 1000 | Cc1nc(N2CCCN(c3ccc(-c4cc(F)ccc4F)cc3)C2=O)sc1S(=O)(=O)N1CC[C@H](N)C1 [Compound 398]
< 100 | Cc1nc(N2CCCN(c3ccc(-c4cc(F)cc(F)c4O)cc3)C2=O)sc1S(N)(=O)=O [Compound 215]
< 100 | Cc1nc(N2CCN(c3ccc(-c4cc(F)cc5nsnc45)cc3)C2=O)sc1S(N)(=O)=O [Compound 314]
100 to 1000 | Cc1nc(N2CCCN(c3ccc(-c4cccc5c4OCO5)cc3)C2=O)sc1S(N)(=O)=O [Compound 81]
100 to 1000 | Cc1nc(N2C[C@@H](C(N)=O)CN(c3ccc(-c4cc(F)ccc4F)cc3)C2=O)sc1S(N)(=O)=O (single isomer, unassigned) [Compound 383]
100 to 1000 | Cc1nc(N2CCCN(c3ccc(-c4scnc4C#N)cc3)C2=O)sc1S(N)(=O)=O [Compound 47]
< 100 | Cc1nc(N2CCCN(c3ccc(-c4cc(Cl)ccc4F)cc3)C2=O)sc1S(N)(=O)=O [Compound 27]
< 100 | Cc1nc(N2C[C@@H](O)CN(c3ccc(-c4cc(F)ccc4F)cc3)C2=O)sc1S(N)(=O)=O (single isomer, unassigned) [Compound 355]
< 100 | COc1c(F)cc(F)cc1-c1ccc(N2CCCN(c3nc(C)c(S(=O)(=O)NCCCCCCCCCCO)s3)C2=O)cc1 [Compound 422]
< 100 | Cc1nc(N2CCCN(c3ccc(-c4cccc5sccc45)cc3)C2=O)sc1S(N)(=O)=O [Compound 285]
< 100 | Cc1nc(N2CCCN(c3ccc(-c4cccc(Cl)c4)cc3)C2=O)sc1S(N)(=O)=O [Compound 191]
1000 to 5000 | Cc1nc(N2CCCN(c3ccc(-c4cc(F)ccc4C#CC(C)(C)O)cc3)C2=O)sc1S(N)(=O)=O [Compound 19, 2-(3-(5′-Fluoro-2′-(3-hydroxy-3-methylbut-1-yn-1-yl)-[1,1′-biphenyl]-4-yl)-2-oxotetrahydropyrimidin-1(2H)-yl)-4-methylthiazole-5-sulfonamide]
100 to 1000 | CN=S(C)(=O)c1sc(N2CCCN(c3ccc(-c4ccccc4F)cc3)C2=O)nc1C (stereo not shown) [Compound 145]
< 100 | COCCCCNS(=O)(=O)c1sc(N2CCCN(c3ccc(-c4cc(F)ccc4F)cc3)C2=O)nc1C [Compound 390]
1000 to 5000 | Cc1nc(N2CCCN(c3ccc(-c4ccccc4C4COC4)cc3)C2=O)sc1S(N)(=O)=O [Compound 197]
100 to 1000 | Cc1nc(N2CCCN(c3ccc(-c4cccc(C5CCC5)c4)cc3)C2=O)sc1S(N)(=O)=O [Compound 199]

Same assay, conditions: Human alphaherpesvirus 2, Vero, 120 h, Vero cells, 5 days

EC50 [nM] | Compound
28 | Cc1nc(N2CCN(c3ccc(-c4cc(F)cc5nsnc45)cc3)C2=O)sc1S(N)(=O)=O [Example 314]

Same assay, conditions: Vero cells, 160 TCID50 HSV-2 G strain, 5 days, cell viability

EC50 [nM] | Compound
100 to 1000 | Cc1nc(N2CCCN(c3ccc(-c4cccc5ccnn45)cc3)C2=O)sc1S(N)(=O)=O [Compound 64]
